Data set [1] can be described thus: Redeposition of ghee onto coupons. As to conditions: pH 11, 50° C., 1 g ghee in 600 g water, 10 minutes, FIG. 5. On the procedure:
Each coupon was new and conditioned by soaking in methyl alcohol for 30 seconds, then placed in 60° C. oven for 30 minutes. 600 g of 0 grain water was heated in a 1000 ml beaker to 50° C. The pH of the mixture was adjusted to 11 using NaOH. The chemistry was added to the solution and mixed for one minute. Additionally, 1 g of melted ghee was added to the solution and mixed for one minute. Three cleaned and weighed coupons were added using a coupon holder. After 10 minutes, the coupons were removed and dipped in DI water once. Coupons were left to dry overnight and weighed the following day. […] Therefore, after the soil is removed it is less likely to be redeposited onto the surface again.

Data set [2] can be described thus: Toxicity screening of surfactants by derived no-effect level (DNEL). The conditions noted are these: derived from toxicological studies supplied by the surfactant manufacturer, with assessment factors.
From the text: As referred to herein, a DNEL is substance specific and is commonly used as a health risk-based threshold in toxicological risk assessments. As a point of departure for the derivation of a DNEL varying toxicological studies are used, supplied by the surfactant manufacturer. […] Depending on evaluated endpoint and different parameters of these studies certain assessment factors are applied to derivate the DNEL. Used herein are scientifically justified and publicly recognized methods (e.g. by EFSA or ECETOC) for the determination of these assessment factors.
Surfactants were screened for lower toxicity levels.

Alkyl polyglucosides [APGs]: the “redeposition of butterfat onto coupons” value in data set [1] is “helps prevent a larger amount of butterfat from being deposited”.

For Nonylphenol ethoxylate [NPE], the “DNEL (derived no-effect level)” value in data set [2] is on record as “less than 1”.

For the origin of these results see patent US20250188387A1, “LOW TOXICITY SURFACTANT BOOSTER COMPOSITIONS FOR FILTRATION MEMBRANE CLEANING APPLICATIONS” (ECOLAB USA INC., priority 2023, published 2025).
